Laboratory results: patent US20220259202A1, “1-(4-(AMINOMETHYL)BENZYL)-2-BUTYL-2H-PYRAZOLO[3,4-C]QUINOLIN-4-AMINE DERIVATIVES AND RELATED COMPOUNDS AS TOLL-LIKE RECEPTOR (TLR) 7/8 AGONISTS, AS WELL AS ANTIBODY DRUG CONJUGATES THEREOF FOR USE IN CANCER THERAPY AND DIAGNOSIS” (SUTRO BIOPHARMA, INC., priority 2019, published 2022)

Legend:
Assay in all cases: HEK293 SEAP reporter assay, other TLRs (Biological Example 3)
Assay type in all cases: cell-based
human TLR3 = target: T1, human TLR3 (Homo sapiens, UniProt O15455); settings: 16 hrs, up to 1 μM
T1 construct: host or cells: HEK293
T1 sequence (O15455 24-904): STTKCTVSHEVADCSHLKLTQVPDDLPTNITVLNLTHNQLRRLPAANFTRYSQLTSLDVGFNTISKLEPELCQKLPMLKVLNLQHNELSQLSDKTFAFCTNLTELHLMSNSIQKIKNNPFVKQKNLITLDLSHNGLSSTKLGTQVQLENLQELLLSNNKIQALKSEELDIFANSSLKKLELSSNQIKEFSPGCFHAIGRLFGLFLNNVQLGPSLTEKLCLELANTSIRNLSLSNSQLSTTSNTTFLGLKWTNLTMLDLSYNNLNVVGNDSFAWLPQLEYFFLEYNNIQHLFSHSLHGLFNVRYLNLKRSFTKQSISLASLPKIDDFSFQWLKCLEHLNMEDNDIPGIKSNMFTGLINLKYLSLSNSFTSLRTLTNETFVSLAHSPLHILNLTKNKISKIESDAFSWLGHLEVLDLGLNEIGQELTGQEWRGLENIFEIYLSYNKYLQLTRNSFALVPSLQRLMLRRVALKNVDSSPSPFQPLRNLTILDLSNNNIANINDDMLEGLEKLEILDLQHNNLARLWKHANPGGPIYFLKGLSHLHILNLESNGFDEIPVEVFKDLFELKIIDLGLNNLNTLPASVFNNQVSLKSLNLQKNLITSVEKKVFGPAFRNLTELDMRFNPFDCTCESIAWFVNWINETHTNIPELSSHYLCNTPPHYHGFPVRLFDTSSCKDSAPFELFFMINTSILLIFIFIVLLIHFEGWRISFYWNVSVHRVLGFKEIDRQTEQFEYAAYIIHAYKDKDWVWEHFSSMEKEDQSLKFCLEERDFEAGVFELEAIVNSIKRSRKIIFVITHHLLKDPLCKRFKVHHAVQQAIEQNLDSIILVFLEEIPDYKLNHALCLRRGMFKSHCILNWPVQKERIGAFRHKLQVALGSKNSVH
From the text: (§1) In this example, the activity of the Compound 1 to stimulate different human and mouse TLR pathways was investigated on HEK293 cells transfected with inducible SEAP (secreted embryonic alkaline phosphatase) reporter genes and also expressing different human TLRs (TLR2, TLR3, TLR4, TLR5, TLR7, TLR8, TLRS) or mouse TLRs (TLR2, TLR3, TLR4, TLR5, TLR7, TLR8, TLR13). Compound A
(§2) HEK293 reporter cell lines were purchased from Invivogen and cell lines were maintained in manufacture recommended culture medium with required supplemental antibiotics. On the day of assay, the cells were harvested with Accutase and counted by the Vi-CELL Cell Viability Analyzers. Cells were re-suspended in HEK blue detection medium and a total of 10000 cells were seeded in each well of a 384-well flat bottom plate. […] Assay plates were cultured at 37° C. in a CO2 incubator for 16 hrs. HEK-Blue™ Detection medium changes to a purple/blue color in the presence of secreted SEAP, which can be detected by spectrophotometry at 620-655 nm. Data was fitted with non-linear regression analysis, using a log(inhibitor) vs. response-variable slope, 3-parameter fit with GraphPad Prism.

human TLR4 = target: T2, human TLR4 (Homo sapiens, UniProt O00206+Q9Y6Y9); settings: 16 hrs, up to 1 μM
T2 construct: host or cells: HEK293
From the text: as §1, §2

mouse TLR5 = target: T3, mouse TLR5 (Mus musculus, UniProt Q9JLF7); settings: 16 hrs, up to 1 μM
T3 construct: host or cells: HEK293
From the text: as §1, §2

mouse TLR7 = target: T4, mouse TLR7 (Mus musculus, UniProt P58681); settings: 16 hrs, * = Estimated
T4 construct: host or cells: HEK293
T4 sequence (P58681 27-1050): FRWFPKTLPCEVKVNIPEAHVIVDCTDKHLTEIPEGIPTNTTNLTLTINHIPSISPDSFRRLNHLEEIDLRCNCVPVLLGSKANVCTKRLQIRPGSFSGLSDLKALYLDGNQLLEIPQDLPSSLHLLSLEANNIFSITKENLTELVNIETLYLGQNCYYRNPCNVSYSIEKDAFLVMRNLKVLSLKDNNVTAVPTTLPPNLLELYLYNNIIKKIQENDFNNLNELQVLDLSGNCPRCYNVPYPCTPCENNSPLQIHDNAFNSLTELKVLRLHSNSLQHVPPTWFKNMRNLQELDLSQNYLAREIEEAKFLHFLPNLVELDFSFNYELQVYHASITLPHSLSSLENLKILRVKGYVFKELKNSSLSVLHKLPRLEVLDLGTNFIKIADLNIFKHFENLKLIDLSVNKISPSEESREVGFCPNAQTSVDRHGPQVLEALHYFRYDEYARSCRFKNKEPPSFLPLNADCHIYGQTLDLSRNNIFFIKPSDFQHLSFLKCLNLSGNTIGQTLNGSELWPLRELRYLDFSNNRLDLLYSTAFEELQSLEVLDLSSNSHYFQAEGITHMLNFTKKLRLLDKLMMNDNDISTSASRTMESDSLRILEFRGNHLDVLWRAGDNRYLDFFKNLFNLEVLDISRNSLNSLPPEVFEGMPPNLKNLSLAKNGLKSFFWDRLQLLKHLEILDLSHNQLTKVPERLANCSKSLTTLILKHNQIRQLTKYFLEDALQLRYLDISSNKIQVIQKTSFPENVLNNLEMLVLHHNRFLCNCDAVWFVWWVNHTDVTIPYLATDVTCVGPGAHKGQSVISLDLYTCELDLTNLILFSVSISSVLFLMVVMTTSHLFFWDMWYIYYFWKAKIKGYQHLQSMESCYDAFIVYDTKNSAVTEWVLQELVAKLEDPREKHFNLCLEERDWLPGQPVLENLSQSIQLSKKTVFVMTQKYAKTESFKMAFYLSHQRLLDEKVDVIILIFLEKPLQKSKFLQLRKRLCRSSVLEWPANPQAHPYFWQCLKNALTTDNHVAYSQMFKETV
From the text: as §1, §2

T2 sequence (O00206 24-839): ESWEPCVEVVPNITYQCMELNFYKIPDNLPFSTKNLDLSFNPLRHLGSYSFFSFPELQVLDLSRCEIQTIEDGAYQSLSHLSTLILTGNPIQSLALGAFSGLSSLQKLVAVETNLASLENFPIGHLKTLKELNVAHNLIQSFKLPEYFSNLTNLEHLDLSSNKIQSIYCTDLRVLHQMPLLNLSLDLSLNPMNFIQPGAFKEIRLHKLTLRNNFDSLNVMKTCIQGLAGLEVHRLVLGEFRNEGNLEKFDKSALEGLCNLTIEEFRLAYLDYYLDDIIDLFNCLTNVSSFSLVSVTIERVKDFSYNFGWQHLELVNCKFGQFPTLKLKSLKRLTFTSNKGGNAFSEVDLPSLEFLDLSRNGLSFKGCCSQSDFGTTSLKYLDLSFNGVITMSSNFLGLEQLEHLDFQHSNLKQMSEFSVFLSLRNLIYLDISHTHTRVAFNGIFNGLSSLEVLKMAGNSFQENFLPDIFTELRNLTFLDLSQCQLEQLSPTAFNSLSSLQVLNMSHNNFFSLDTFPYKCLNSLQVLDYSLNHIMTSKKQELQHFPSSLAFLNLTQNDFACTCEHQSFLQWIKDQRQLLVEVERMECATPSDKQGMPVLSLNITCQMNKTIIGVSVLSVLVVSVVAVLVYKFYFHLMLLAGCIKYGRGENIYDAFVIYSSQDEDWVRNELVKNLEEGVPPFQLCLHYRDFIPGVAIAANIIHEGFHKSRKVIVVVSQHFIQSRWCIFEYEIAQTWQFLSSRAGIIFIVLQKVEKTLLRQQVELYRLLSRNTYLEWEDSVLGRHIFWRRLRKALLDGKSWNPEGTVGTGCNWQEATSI
T2 sequence (Q9Y6Y9 17-160 limits assumed): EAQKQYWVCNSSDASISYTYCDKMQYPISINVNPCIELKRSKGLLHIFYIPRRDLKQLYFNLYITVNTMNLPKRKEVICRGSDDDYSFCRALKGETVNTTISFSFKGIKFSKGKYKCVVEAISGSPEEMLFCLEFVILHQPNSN
T3 sequence (Q9JLF7 27-859): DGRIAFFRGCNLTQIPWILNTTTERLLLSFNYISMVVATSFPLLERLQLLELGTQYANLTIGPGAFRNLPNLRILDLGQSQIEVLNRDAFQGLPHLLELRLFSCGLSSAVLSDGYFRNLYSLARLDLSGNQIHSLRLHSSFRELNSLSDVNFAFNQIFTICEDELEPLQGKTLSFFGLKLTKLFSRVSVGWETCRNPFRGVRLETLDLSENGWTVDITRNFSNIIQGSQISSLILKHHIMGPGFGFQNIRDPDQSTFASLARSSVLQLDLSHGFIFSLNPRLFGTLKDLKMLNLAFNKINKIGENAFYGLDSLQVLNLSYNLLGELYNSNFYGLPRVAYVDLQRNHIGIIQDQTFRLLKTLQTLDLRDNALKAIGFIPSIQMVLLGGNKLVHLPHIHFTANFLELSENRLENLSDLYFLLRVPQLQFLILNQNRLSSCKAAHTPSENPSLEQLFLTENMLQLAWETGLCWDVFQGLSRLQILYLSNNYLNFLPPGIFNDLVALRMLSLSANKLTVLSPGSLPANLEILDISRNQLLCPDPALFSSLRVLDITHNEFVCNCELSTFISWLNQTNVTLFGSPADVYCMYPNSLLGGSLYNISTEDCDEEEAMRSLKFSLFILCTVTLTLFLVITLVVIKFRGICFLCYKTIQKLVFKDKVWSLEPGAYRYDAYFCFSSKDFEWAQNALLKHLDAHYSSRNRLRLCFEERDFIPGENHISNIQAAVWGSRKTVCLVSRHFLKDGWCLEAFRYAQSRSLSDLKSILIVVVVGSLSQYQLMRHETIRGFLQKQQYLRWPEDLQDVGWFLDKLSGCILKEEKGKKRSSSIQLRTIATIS

| EC50 (human TLR3) | EC50 (human TLR4) | EC50 (mouse TLR5) | EC50 (mouse TLR7) | Structure (SMILES) |
| --- | --- | --- | --- | --- |
| > 1 µM | > 1 µM | > 1 µM | ~0.0218 µM | CCCCn1nc2c(N)nc3ccccc3c2c1Cc1ccc(CN)cc1 [Compound 1, 1-(4-(aminomethyl)benzyl)-2-butyl-2H-pyrazolo[3,4-c]quinolin-4-amine] |
| > 1 µM | > 1 µM | > 1 µM | 0.0159 µM | CCCCc1nc2c(N)nc3ccccc3c2n1Cc1ccc(CN)cc1 [Compound A, reference compound] |
